Measured values: US8513381B2, “Melanocortin analogs with antimicrobial activity” (Fondazione IRCCS Ca' Granda-Ospedale Maggiore Policlinico, priority 2009, dated 2013)
Converted amounts (≈) assume the structure as drawn. Where two headings read alike, the source gives them in different places. Non-standard residues stand in square brackets, D forms with d. Residues, ends and D or L forms follow the SMILES beside them. d2Nal = N[C@H](Cc1ccc2ccccc2c1)C(=O)O; Aic = NC1(C(=O)O)Cc2ccccc2C1; Ac5c = NC1(C(=O)O)CCCC1; Aib = CC(C)(N)C(=O)O

Legend:
C. glabrata = assay type: cell-based, Candida glabrata
Experimental: (§1) Two Candida albicans isolates were purchased from the ATCC (No. 24433 and 76615). The other yeast isolates were obtained from the collection of Fondazione Ospedale Maggiore Policlinico, Mangiagalli e Regina Elena, Milano. The collection included C. albicans (7 isolates), C. glabrata (3 isolates), and C. krusei (3 isolates). Antifungal susceptibility testing was performed using the broth microdilution method according to the NCCLS M27-A guidelines (National Committee for Clinical Laboratory Standards. 1997, Reference method for broth dilution antifungal susceptibility testing of yeasts and approved standard NCCLS document M27-A. National Committee for Clinical Laboratory Standards, Wayne, Pa.). The organisms were removed from frozen glycerol stock (10% sterile glycerol suspensions stored at −70° C.), subcultured onto Sabouraud's dextrose plates, and incubated at 35° C. After 48 h of incubation, the plates were inspected for purity. To prepare stationary growth phase yeast, a colony was taken from the agar plate and transferred into 5 mL Sabouraud-dextrose broth and incubated for 48 h at 35° C. Cells were centrifuged at 1,000×g for 10 min and the pellet was washed twice with distilled water. Cells were counted and suspended in RPMI 1640 medium buffered to pH 7.0 with 0.165 mol l^−1 morpholinepropanesulphonic acid (MOPS) buffer (Sigma) to obtain the two times test inoculum (1×10^3 to 5×10^3 CFU/mL). Each well of 96 U-shaped well-plates received 100 μl of each antifungal peptides in concentrations from 10^−4 to 7.8×10^−7 M and 100 μl of the two-times inoculum to a final yeast concentration of 0.5×10−[…] cells ml^−1
(§2) The MIC90, i.e. the minimum inhibitory concentrations endpoint determined as 90% reduction in turbidity measured using a spectrophotometer (Titertek multiscan at 690 nm wave length).

[1] = tested on: Pseudomonas aeruginosa ATCC 27853; assay type: cell-based
Experimental: (§3) The bacterial strains Pseudomonas aeruginosa ATCC 27853 and Staphylococcus aureus ATCC 29213 were grown in 2% Bacto Peptone water (Difco 1807-17-4) until growth was exponential. A standard microdilution technique with an inoculum of 2×10^6 CFU/mL was used. The minimal inhibitory concentration (MIC) of the peptides was determined in 1% Bacto Peptone water after incubation overnight at 37° C.

[2] = tested on: Staphylococcus aureus ATCC 29213; assay type: cell-based
Experimental: as §3

C. albicans = assay type: cell-based, Candida albicans
Experimental: as §1, §2

C. krusei = assay type: cell-based, Candida krusei
Experimental: as §1, §2

| Compound | MIC 90 at 48 hours (C. glabrata) | MIC (minimal inhibitory concentration) [1] | MIC (minimal inhibitory concentration) [2] | MIC 90 at 48 hours (C. albicans; C. albicans 000954, 35° C.) | MIC 90 at 48 hours (C. albicans; C. albicans 011587, 35° C.) | MIC 90 at 48 hours (C. albicans; C. albicans 983201-R1, 35° C.) | MIC 90 at 48 hours (C. albicans; C. albicans 991185, 35° C.) | MIC 90 at 48 hours (C. albicans; C. albicans 994199, 35° C.) | MIC 90 at 48 hours (C. albicans; C. albicans 995147, 35° C.) | MIC 90 at 48 hours (C. albicans; C. albicans 995439, 35° C.) | MIC 90 at 48 hours (C. albicans; C. albicans ATCC 24433, 35° C.) | MIC 90 at 48 hours (C. albicans; C. albicans ATCC 76615, 35° C.) | MIC 90 at 48 hours (C. glabrata; C. glabrata 18012, 35° C.) | MIC 90 at 48 hours (C. glabrata; C. glabrata 995651, 35° C.) | MIC 90 at 48 hours (C. glabrata; C. glabrata 995667, 35° C.) | MIC 90 at 48 hours (C. krusei; C. krusei 004490, 35° C.) | MIC 90 at 48 hours (C. krusei; C. krusei 991388, 35° C.) | MIC 90 at 48 hours (C. krusei; C. krusei 995668, 35° C.) | MIC 90 at 48 hours (C. krusei) | MIC 90 at 48 hours (C. albicans) |
| --- | --- | --- | --- | --- | --- | --- | --- | --- | --- | --- | --- | --- | --- | --- | --- | --- | --- | --- | --- | --- |
| CC(C)[C@H](NC(=O)[C@H](Cc1ccccc1)NC(=O)[C@H](CCCCN)NC(=O)C1(NC(=O)[C@H](Cc2c[nH]c3ccccc23)NC(=O)[C@H](CCCNC(=N)N)NC(=O)[C@@H](Cc2ccc3ccccc3c2)NC(=O)[C@@H](N)Cc2c[nH]cn2)Cc2ccccc2C1)C(N)=O [MSH0708, H-His-D(2)-Nal-Arg-Trp-Aic-Lys-Phe-Val-NH2] (H-H[d2Nal]RW[Aic]KFV-NH2) | 123 µg/mL (≈ 100 µM) | 61 µg/mL (≈ 49.7 µM) | 31 µg/mL (≈ 25.3 µM) | – | – | – | – | – | – | – | – | – | – | – | – | – | – | – | – | – |
| H-His-D(2)-Nal-Arg-Trp-Gly-Gly-Lys-Phe-Val-NH2 [MSH0701] | – | – | – | no | no | no | no | no | no | no | no | no | no | no | no | no | no | no | – | – |
| CC(C)[C@H](NC(=O)[C@H](Cc1ccccc1)NC(=O)[C@H](CCCCN)NC(=O)C1(NC(=O)[C@H](Cc2c[nH]c3ccccc23)NC(=O)[C@H](CCCNC(=N)N)NC(=O)[C@@H](Cc2ccc3ccccc3c2)NC(=O)[C@@H](N)Cc2c[nH]cn2)CCCC1)C(N)=O [MSH0705, H-His-D(2)-Nal-Arg-Trp-Cpa-Lys-Phe-Val-NH2] (H-H[d2Nal]RW[Ac5c]KFV-NH2) | – | – | – | – | – | – | – | – | – | – | – | – | no | no | no | – | – | – | 117 µg/mL (≈ 99.2 µM) | – |
| H-His-D(2)-Nal-Arg-Trp-Ala-Lys-Phe-Val-NH2 [MSH0703] | – | – | – | no | no | no | no | no | no | no | no | no | no | no | no | no | no | no | – | – |
| H-His-D(2)-Nal-Arg-Trp-Acpc-Lys-Phe-Val-NH2 [MSH0706] | – | – | – | no | no | no | no | no | no | no | no | no | no | no | – | no | no | no | – | – |
| CC(C)[C@H](NC(=O)[C@H](Cc1ccccc1)NC(=O)[C@H](CCCCN)NC(=O)C(C)(C)NC(=O)[C@H](Cc1c[nH]c2ccccc12)NC(=O)[C@H](CCCNC(=N)N)NC(=O)[C@@H](Cc1ccc2ccccc2c1)NC(=O)[C@@H](N)Cc1c[nH]cn1)C(N)=O [MSH0702, H-His-D(2)-Nal-Arg-Trp-Aib-Lys-Phe-Val-NH2] (H-H[d2Nal]RW[Aib]KFV-NH2) | – | – | – | no | – | no | no | no | no | no | no | no | no | no | no | – | – | – | 115 µg/mL (≈ 99.7 µM) | 115 µg/mL (≈ 99.7 µM) |
